In ChEMBL document CHEMBL4000225, “A matrix-focused structure-activity and binding site flexibility study of quinolinol inhibitors of botulinum neurotoxin serotype A” (Bioorg Med Chem Lett, 2017):
Calls of active or inactive are those of the source. The rule behind the calls is not given here.

What was measured:
[1] = target: Botulinum neurotoxin type A (Clostridium botulinum, UniProt P0DPI0); assay: Inhibition of protease activity of recombinant full length Clostridium botulinum Hall BoNT/A light chain using SNAP-25 peptide (187 to 203 residues) as substrate after 5 mins by HPLC analysis; design: species or system Clostridium botulinum A str. Hall
Botulinum neurotoxin type A, sequence (P0DPI0 2-448 limits assumed): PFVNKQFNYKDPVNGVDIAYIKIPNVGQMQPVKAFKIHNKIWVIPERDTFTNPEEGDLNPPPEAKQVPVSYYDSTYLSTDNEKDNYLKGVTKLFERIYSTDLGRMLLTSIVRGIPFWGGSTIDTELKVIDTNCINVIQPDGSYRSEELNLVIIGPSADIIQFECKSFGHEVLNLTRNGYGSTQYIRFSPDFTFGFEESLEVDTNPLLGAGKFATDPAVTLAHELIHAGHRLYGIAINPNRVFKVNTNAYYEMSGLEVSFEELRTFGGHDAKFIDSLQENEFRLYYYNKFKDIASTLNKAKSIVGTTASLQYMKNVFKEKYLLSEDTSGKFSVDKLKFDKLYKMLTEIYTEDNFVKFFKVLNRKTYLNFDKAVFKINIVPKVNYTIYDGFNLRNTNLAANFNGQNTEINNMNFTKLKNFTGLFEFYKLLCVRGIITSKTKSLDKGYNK

[2] = target: Botulinum neurotoxin type A (Clostridium botulinum) (UniProt P0DPI0); assay: (§1) Inhibition of Clostridium botulinum Hall BoNT/A light chain-induced paralysis in CD1 mouse phrenic nerve diaphragm assessed as compound concentration required to cause delay in time to 50% loss of twitch tension evoked by nerve stimulation preincubated with BoNT/A light chain for 15 to 20 mins followed by addition to diaphragm; settings: Clostridium botulinum A str. Hall
Botulinum neurotoxin type A (Clostridium botulinum), sequence (P0DPI0 2-448 limits assumed): as above

[3] = target: Botulinum neurotoxin type A (Clostridium botulinum) (UniProt P0DPI0); assay: as §1, with “stimulation at 20 uM” for “stimulation”; settings: Clostridium botulinum A str. Hall

`Oc1c(C(Nc2ccccn2)c2ccc(F)cc2)ccc2cccnc12` (stereo not drawn) showed an IC50 [1] of 4100 nM and an Activity [2] of 2 µM.

In the case of `Cc1ccc2ccc(C(Nc3ncccn3)c3ccc(F)cc3F)c(O)c2n1` (stereo not drawn), the IC50 [1] is reported as 4300 nM and the inhibition [3] is reported as “inactive”.

`Oc1c(C(Nc2ccccn2)c2ccccc2)cc(Cl)c2cccnc12` (stereo not drawn) was tested, and the IC50 [1] was 1500 nM and the Activity [2] was 2 µM.

Compound `Oc1c(C(Nc2ncccn2)c2ccccc2F)cc(Cl)c2cccnc12` (stereo not drawn) has an IC50 [1] of 4000 nM and an Activity [2] of 2 µM.

For `Oc1c(C(Nc2cccnc2)c2ccc(F)cc2F)cc(Cl)c2cccnc12` (stereo not drawn), the IC50 [1] was 600 nM and the Activity [2] was 20 µM.

In the case of `Oc1c(C(Nc2ncccn2)c2ccccc2)cc(Cl)c2cccnc12` (stereo not drawn), the IC50 [1] is reported as 4500 nM and the Activity [2] is reported as 2 µM.

Work on `Cc1ccc2ccc(C(Nc3ncccn3)c3ccc(F)cc3)c(O)c2n1` (stereo not drawn) yielded an IC50 [1] of 4200 nM and an Activity [2] of 20 µM.

For `Oc1c(C(Nc2ccccn2)c2ccc(F)cc2)cc(Cl)c2cccnc12` (stereo not drawn), the IC50 [1] was 600 nM and the Activity [2] was 20 µM.

`O=Cc1ccc(F)cc1` was tested, and the IC50 [1] was 2300 nM.

In the case of `Cc1ccc2ccc(C(Nc3cccnc3)c3ccccc3F)c(O)c2n1` (stereo not drawn), the IC50 [1] is reported as 700 nM and the Activity [2] is reported as 20 µM.

`Oc1c(C(Nc2ccccn2)c2ccccc2)ccc2cccnc12` (stereo not drawn) gave an Activity [2] of 10 µM.

For `Oc1c(C(Nc2cccnc2)c2ccc(F)cc2)cc(Cl)c2cccnc12` (stereo not drawn), the IC50 [1] was 2300 nM and the Activity [2] was 2 µM.

For `Oc1c(C(Nc2ncccn2)c2ccc(F)cc2F)ccc2cccnc12` (stereo not drawn), the IC50 [1] was 12700 nM and the inhibition [3] was “inactive”.

`Oc1c(C(Nc2cccnc2)c2ccc(F)cc2)ccc2cccnc12` (stereo not drawn) was tested, and the IC50 [1] was 4600 nM and the Activity [2] was 2 µM.

`Oc1c(C(Nc2ccccn2)c2ccccc2F)cc(Cl)c2cccnc12` (stereo not drawn) was tested, and the IC50 [1] was 1400 nM and the Activity [2] was 20 µM.

Work on `Nc1cccnc1` yielded an IC50 [1] of 3300 nM.

Work on `Oc1c(C(Nc2ncccn2)c2ccc(F)cc2)ccc2cccnc12` (stereo not drawn) yielded an IC50 [1] of 1700 nM and an Activity [2] of 20 µM.

For `Oc1c(C(Nc2ccccn2)c2ccc(F)cc2F)ccc2cccnc12` (stereo not drawn), the IC50 [1] was 3600 nM and the Activity [2] was 20 µM.

Compound `Oc1c(C(Nc2ccccn2)c2ccccc2F)ccc2cccnc12` (stereo not drawn) has an IC50 [1] of 1200 nM and an Activity [2] of 20 µM.

In the case of `Oc1cccc2cccnc12` [OXYQUINOLINE], the IC50 [1] is reported as 3900 nM.

`Cc1ccc2ccc(C(Nc3cccnc3)c3ccc(F)cc3F)c(O)c2n1` (stereo not drawn) gave an IC50 [1] of 12300 nM and an Activity [2] of 2 µM.

With `Cc1ccc2ccc(C(Nc3ccccn3)c3ccc(F)cc3)c(O)c2n1` (stereo not drawn) the IC50 [1] was 1600 nM and the Activity [2] was 20 µM.

`O=Cc1ccccc1F` gave an IC50 [1] of 2800 nM.

With `Cc1ccc2ccc(C(Nc3ncccn3)c3ccccc3)c(O)c2n1` (stereo not drawn) the IC50 [1] was 4600 nM and the inhibition [3] was “inactive”.

In the case of `Oc1ccc(Cl)c2cccnc12` [CLOXYQUIN], the IC50 [1] is reported as 1900 nM.

In the case of `Oc1c(C(Nc2cccnc2)c2ccccc2F)cc(Cl)c2cccnc12` (stereo not drawn), the IC50 [1] is reported as 700 nM and the Activity [2] is reported as 2 µM.

With `Oc1c(C(Nc2cccnc2)c2ccc(F)cc2F)ccc2cccnc12` (stereo not drawn) the IC50 [1] was 4400 nM and the Activity [2] was 20 µM.

`Oc1c(C(Nc2ncccn2)c2ccccc2F)ccc2cccnc12` (stereo not drawn) was tested, and the IC50 [1] was 1900 nM and the inhibition [3] was “inactive”.

`Oc1c(C(Nc2ccccn2)c2ccc(F)cc2F)cc(Cl)c2cccnc12` (stereo not drawn) was tested, and the IC50 [1] was 700 nM and the Activity [2] was 20 µM.

Compound `O=Cc1ccc(F)cc1F` has an IC50 [1] of 4900 nM.

`Oc1c(C(Nc2ncccn2)c2ccc(F)cc2F)cc(Cl)c2cccnc12` (stereo not drawn) was tested, and the IC50 [1] was 2200 nM and the inhibition [3] was “inactive”.

In the case of `Nc1ccccn1` [2-AMINOPYRIDINE], the IC50 [1] is reported as 1800 nM.

Work on `Oc1c(C(Nc2cccnc2)c2ccccc2)ccc2cccnc12` (stereo not drawn) yielded an IC50 [1] of 6200 nM and an Activity [2] of 20 µM.

`O=Cc1ccccc1` [BENZALDEHYDE] showed an IC50 [1] of 2900 nM.

`Cc1ccc2ccc(C(Nc3ccccn3)c3ccccc3F)c(O)c2n1` (stereo not drawn) gave an IC50 [1] of 1400 nM and an Activity [2] of 2 µM.

For `Cc1ccc2ccc(C(Nc3ccccn3)c3ccc(F)cc3F)c(O)c2n1` (stereo not drawn), the IC50 [1] was 2700 nM and the Activity [2] was 20 µM.

For `Cc1ccc2ccc(C(Nc3ncccn3)c3ccccc3F)c(O)c2n1` (stereo not drawn), the IC50 [1] was 12000 nM and the inhibition [3] was “inactive”.

For `Nc1ncccn1`, the IC50 [1] was 4600 nM.

Work on `Cc1ccc2ccc(C(Nc3ccccn3)c3ccccc3)c(O)c2n1` (stereo not drawn) yielded an IC50 [1] of 700 nM and an Activity [2] of 2 µM.

In the case of `Oc1c(C(Nc2cccnc2)c2ccccc2)cc(Cl)c2cccnc12` (stereo not drawn), the IC50 [1] is reported as 3500 nM and the Activity [2] is reported as 2 µM.

`Oc1c(C(Nc2cccnc2)c2ccccc2F)ccc2cccnc12` (stereo not drawn) was tested, and the Activity [2] was 10 µM.

`Cc1ccc2cccc(O)c2n1` [8-HYDROXY QUINALDINE] was tested, and the IC50 [1] was 3900 nM.

For `Oc1c(C(Nc2ncccn2)c2ccccc2)ccc2cccnc12` (stereo not drawn), the IC50 [1] was 2700 nM and the inhibition [3] was “inactive”.

With `Cc1ccc2ccc(C(Nc3cccnc3)c3ccccc3)c(O)c2n1` (stereo not drawn) the Activity [2] was 20 µM.

With `Cc1ccc2ccc(C(Nc3cccnc3)c3ccc(F)cc3)c(O)c2n1` (stereo not drawn) the Activity [2] was 20 µM.

`Oc1c(C(Nc2ncccn2)c2ccc(F)cc2)cc(Cl)c2cccnc12` (stereo not drawn) gave an IC50 [1] of 700 nM and an Activity [2] of 20 µM.
